Test results from paper PMC4302236, “Functional profile of a novel modulator of serotonin, dopamine, and glutamate neurotransmission” (Psychopharmacology, 2014).

Test system: extracellular dopamine
Test: In vivo microdialysis of dopamine and DOPAC in striatum and prefrontal cortex
Details: rats
Description: On the day of the experiment (24–48 h after surgery), the microdialysis probes of each animal were connected via the use of flexible PEEK tubing to a microperfusion pump (Harvard Apparatus, PHD 2000 Holliston, MA). Artificial CSF, composed of 147 mM NaCl, 3 mM KCl, 1.2 mM CaCl2, and 1.2 mM MgCl2 was used to perfuse the probes (1.5 μl/min) beginning at 75 min prior to drug treatment. Baseline dialysate collection was begun for all rats 60 min prior to drug administration (t=−60 min) such that a total of […] were collected prior to drug treatment (t=0). […] A control group of rats (N=9) received only the 0.5 % methylcellulose vehicle solution, delivered orally (p.o.). All drug solutions were delivered in a volume of 1 ml/kg of body weight. Every 20 min for the following 3 h, dialysate was collected from both brain regions of each rat. Dialysates were collected into mini-vials containing 7.5 μl of 0.02 M formic acid using an automated fraction collector Univentor 820, Malta. Tubes containing dialysate samples were then frozen at −80 °C until analyzed by HPLC for levels of dopamine and the dopamine metabolite, DOPAC. […] Coronal sections were prepared of each rat brain to verify the position of the dialysis collection probes. Dopamine and DOPAC concentrations were determined in each sample using HPLC separation and electrochemical detection. An aliquot (20 μl) of each dialysate sample was injected onto the HPLC column by means of a refrigerated microsampler system, consisting of a syringe pump (Gilson, model 402), a multi-column injector (Gilson, model 233 XL), and a temperature regulator (Gilson, model 832). The chromatographic separation was performed on a reverse-phase 150 ×2.1 mm (3 μm) C18 Thermo BDS Hypersil column (Keystone Scientific). […] The mobile phase was run at a flow rate of 0.35 ml/min using an HPLC pump (Shimadzu, model LC-10AD vp). Dopamine and DOPAC were electrochemically detected using a potentiostat (Antec Leyden, model Intro) fitted with a glassy carbon electrode set a +500 mV versus Ag/AgCl (Antec, Leyden). Data were analyzed using Chromatography Data System software (Shimadzu, Class-VP, Japan) using an external standard method to quantify concentrations of dopamine and DOPAC. […] Drug effects were expressed as percentages of basal level (mean±SEM) within the same subject. Statistical analysis was performed using Sigmastat for Windows (SPSS Corporation). Drug effects were compared with baseline and vehicle control using a two-way ANOVA for repeated measurements followed by the Newman–Keuls post hoc test. […] For all tests, the level of statistical significance was set at p<0.05.

Q: `CN1CCN2c3c(cccc31)[C@@H]1CN(CCCC(=O)c3ccc(F)cc3)CC[C@@H]12` [ITI-007, 1-(4-fluoro-phenyl)-4-((6bR,10aS)-3-methyl-2,3,6b,9,10,10a-hexahydro-1H,7H-pyrido[3′,4′:4,5]pyrrolo[1,2,3-de]quinoxalin-8-yl)-butan-1-one] was tested. Which “DA efflux in mPFC” value (3 mg/kg p.o., p<0.05) did it give?
A: Its value is “significantly increased”.

Q: And the “DA efflux in mPFC” value (10 mg/kg p.o., trend toward an increase)?
A: Its value is “not statistically significant”.
